These results are taken from patent publication US11447522B2, “Potent soft anti-inflammatory corticosteroid compounds and uses thereof” (Bodor Laboratories, Inc., priority 2017, dated 2022).

Data set [1] relates to TNF α-production of LPS-stimulated blood cells. The experiment in a line: TNF-α production of lipopolysaccharide-stimulated human blood. In kind it is cell-based. On the procedure: (§1) The in vitro anti-inflammatory effect of ED and its analogs was assessed using LPS-induced TNF α-release under various conditions (diluted or undiluted whole human blood, preincubation with sera) to determine the intrinsic anti-inflammatory activity and systemic biological stability of the various compounds.
(§2) Commercially available human cytokine ELISA sets were used. TNF-α and GM-CSF sets were purchased from BD Pharmingen, San Diego, Calif., USA) and the IL-1β set was obtained from R&D Systems (Minneapolis, Minn., USA). ELISA was performed according to the manufacturer's protocol. Cell-free supernatants were tested in duplicate. Detection limits were 7.8 pg/ml for TNF-α, 4.7 pg/ml for GM-CSF, and 3.9 pg/ml for IL-1β. Results were expressed as the mean percentage of inhibition. IC50 values for test compounds were calculated by linear regression.
Peripheral blood from healthy donors was collected aseptically into sterile heparinized (Vacutainer™) tubes. Whole blood samples from each individual were parallel used both undiluted and after 5-fold dilution with RPMI-1640 medium in every experiment. Blood samples were distributed into 24-well plates and incubated with serial concentrations of the test compounds and 1 μg/ml lipopolysaccharide for 24 h at 37° C. in a CO2 thermostat. Controls were treated with lipopolysaccharide and the vehicle (PBS or 0.01% dimethyl sulfoxide in PBS). After incubation, cell-free supernatants were separated by centrifugation (1000 g for 10 minutes) and stored at −20° C. until determination of the amount of TNF-α. Test compounds were examined in blood samples from five different individuals. Two parallel cultures per treatments were run.

Data set [2] concerns mitogen-induced proliferation of PBMC. Nature of the data set: Proliferation of lectin-stimulated peripheral mononuclear cells. In kind it is cell-based, human. The following applies: read-out: Prolif.**: Inhibition of mitogen-induced proliferation of PBMC. The method, then: Mononuclear cells from heparinized peripheral blood of healthy donors were isolated on suitable gradient (Optiprep solution, 1.077 g/ml). Serial dilutions of the test compounds (ranging from 2×10^−6 to 2×10^−8 M) were made in 100 μl of medium per well of sterile round-bottomed 96-well microtiter plate. Control wells contained culture medium only. 100 μl of cell suspension (10^6 cells/ml), containing concanavalin A (2 μg/ml) was added to each well. […] All cultures were done in triplicate. Microtiter plates were incubated for 72 h at 37° C., in 5% CO2 containing humidified atmosphere. For the last 18 h of incubation, [^3H]thymidine was added to the cells cultures, at 0.1 μCi/well final concentration. At the end of the incubation, cells were harvested to glass microfiber filter (Whatman G/F) and associated radioactivity was determined by liquid scintillation.

In data set [3] the test system is TNF-α production of LPS-stimulated whole blood cells. Nature of the data set: Stability: inhibition of TNF-α production with or without preincubation of the compounds in human plasma/serum. It is filed as cell-based. To be noted: for potency and softness compared with the corresponding compounds 11 and 15: see Table 1. On the procedure:
as §1, §2
Mononuclear cells from peripheral blood of healthy donors were isolated on Ficoll-gradient. One million cells in 0.9 ml of RPMI 1640 medium were distributed into 24-well plates and serial concentrations of the test compounds, made in fresh human serum either instantly or 18 h previously, were added (0.05 ml) together with the lipopolysaccharide (0.05 ml; 1 μg/ml final concentration). Preincubation of the compounds with serum was carried out at 37° C. Processing of the cultures was done as described above.

For data set [4], the system named is ovalbumin sensitized and challenged Brown Norway rats. The experiment in a line: Airway changes of ovalbumin sensitized and challenged Brown Norway rats, intratracheal administration. In kind it is in vivo. The following applies: for AHR (airways hyperreactivity) ED50: relative response to maximal acetylcholine dose.
Data set [5] can be described thus: Stability in the presence of human plasma (HPLC/MS/MS). It is filed as in vitro ADME. To be noted: 37° C. On the procedure:
Etiprednol dicloacetate (BNP-166) was added to freshly prepared human plasma of healthy donors at a concentration of 5 ng/ml, and were incubated at 37° C. for different intervals. After incubation the amount of the original compound (ethyl-17α-dichloroacetoxy-11β-hydroxyandostra-1,4-diene-3-one-17β-carboxylate), and one of its main metabolite, M-OH (17α,11β-dihydroxyandostra-1,4-diene-3-one-17β-carboxylate) were determined using an HPLC/MS/MS method. In brief: Fluocinolone acetonide served as internal standard (20 ng/ml), samples were extracted with a liquid-liquid extraction on Extrelut® columns, and were separated on a Purospher STAR 30×2 mm (3 μm) reversed phase column at a flow rate of 0.3 ml/min, using a linear gradient with a mobile phase system containing acetonitrile, water and acetic acid. Determination were performed on a triple quadrupole mass spectrometer (Perkin-Elmer SCIEX API 2000) supplied with an electrospray interface operated in the positive ionization mode. The multiple ion monitoring, parent→daughter ion transitions of 485.2→265.2, 375.2→265.2 and 495.2→337.2 were used for the quantification of etiprednol dicloacetate, its M-OH metabolite and for the internal standard respectively. Results are expressed as peak areas normalized to the internal control. Stability of the selected ED analogs (10, 11, 13, 17, 21, 25) were determined as described above for ED (3).

[6] abbreviates: diluted blood 1:5, read-out: TNFα* a: Inhibition of TNF α-production of LPS-stimulated blood cells.
[7] abbreviates: undiluted blood, read-out: TNFα* b: Inhibition of TNF α-production of LPS-stimulated blood cells.
Setting [8] is: non-preincubated in human plasma, read-out: Stability*** c: Inhibition of TNF-α production of LPS-stimulated whole blood cells.
The mark [9] stands for this setting: preincubated overnight in human plasma, read-out: Stability*** d: Inhibition of TNF-α production of LPS-stimulated whole blood cells.
[10] abbreviates: intratracheal, 2 hours prior challenge.
Where [11] appears, read: intratracheal, 2 hours prior challenge, minimal statistically significantly effective dose.

Where two headings read alike, the source gives them in different places. Some results are limits rather than exact numbers.

On to `COC(=O)[C@@]1(OC(=O)C(Cl)Cl)[C@@H](C)C[C@H]2[C@@H]3CCC4=CC(=O)C=C[C@]4(C)[C@@]3(F)[C@@H](O)C[C@@]21C` [Compound 10, Methyl 17α-dichloroacetoxy-9α-fluoro-16β-methyl-11β-hydroxy-3-oxoandrosta-1,4-diene-17β-carboxylate], for which the IC50 in data set [1] (setting [6]) was 4 ± 3 nM; in data set [1] (setting [7]), 20 ± 10 nM; in data set [2], less than 0.01 nM; in data set [3] (setting [8]), 1.7 nM; in data set [3] (setting [9]) it was 10.2 nM.

On to `CCOC(=O)[C@@]1(OC(=O)C(Cl)Cl)[C@@H](C)C[C@H]2[C@@H]3CCC4=CC(=O)C=C[C@]4(C)[C@@]3(F)[C@@H](O)C[C@@]21C` [Compound 11, Ethyl 17α-dichloroacetoxy-9α-fluoro-16β-methyl-11β-hydroxy-3-oxoandrosta-1,4-diene-17β-carboxylate], for which, in data set [1] (setting [6]), the IC50 stood at 1.7 ± 2 nM. Further, the IC50 in data set [1] (setting [7]) amounted to 7.1 ± 4 nM. Moreover, the IC50 in data set [2] turned out to be 0.012 nM. Further, the IC50 in data set [3] (setting [8]) is 16 nM. Besides, the IC50 in data set [3] (setting [9]) stood at 18 nM. In data set [4] (Table 2 parameters), the “overall in vivo activity compared with the parent steroid” value was “does not represent significant improvement over ED, except in mucus production”. Further, in data set [4] (setting [10]), the “Edema formation ED50” value came out at 93 µg/kg, the “Eosinophilia BALF ED50” value is more than 100 µg/kg, the “Eosinophilia Peribronchial ED50” value is 10.3 µg/kg and the “Mucus production ED50” value was less than 1 µg/kg. Further, in data set [4] (setting [10]), the “Mucus production, second line (dose type not given)” value was less than 1 µg/kg and the “AHR (airways hyperreactivity) ED50” value was determined as 19.4 µg/kg. In addition, in data set [4] (setting [11]), the “AHR (airways hyperreactivity) MSED” value is 20.0 µg/kg, the “Edema formation MSED” value is 0.5 µg/kg and the “Eosinophilia Peribronchial MSED” value was found to be 12.0 µg/kg.

As for `C[C@H]1C[C@H]2[C@@H]3CCC4=CC(=O)C=C[C@]4(C)[C@@]3(F)[C@@H](O)C[C@]2(C)[C@@]1(OC(=O)C(Cl)Cl)C(=O)OCCl` [Compound 12, Chloromethyl 17α-dichloroacetoxy-9α-fluoro-16β-methyl-11β-hydroxy-3-oxoandrosta-1,4-diene-17β-carboxylate], the results for the IC50 in data set [1] (setting [6]), in data set [1] (setting [7]) and in data set [2] were 20 ± 8 nM, 35 ± 12 nM and 0.05 ± 0.12 nM, respectively.

For `C[C@H]1C[C@H]2[C@@H]3CCC4=CC(=O)C=C[C@]4(C)[C@@]3(F)[C@@H](O)C[C@]2(C)[C@@]1(OC(=O)C(Cl)Cl)C(=O)OCCO` [Compound 13, 2-Hydroxyethyl 17α-dichloroacetoxy-9α-fluoro-16β-methyl-11β-hydroxy-3-oxoandrosta-1,4-diene-17β-carboxylate], the IC50 in data set [1] (setting [6]) was found to be 4.6 ± 6 nM; in data set [1] (setting [7]) it was 5.8 ± 5 nM; in data set [3] (setting [8]), 4.5 nM; in data set [3] (setting [9]) it was 53.5 nM. Also, in data set [3], the “potency and softness compared with the corresponding compounds 11 and 15” value was “more potent but softer”. In addition, in data set [5], the “stability in the presence of human plasma” value was “particularly stable”.

As for `COC(=O)C1(OC(=O)C(Cl)Cl)C(C)CC2C3CC(F)C4=CC(=O)C=CC4(C)C3(F)C(O)CC21C` (stereo not drawn) [Compound 14, Methyl 6α,9α-difluoro-17α-dichloroacetoxy-16β-methyl-11β-hydroxy-3-oxoandrosta-1,4-diene-17β-carboxylate], the IC50 in data set [1] (setting [6]) was 0.8 ± 0.6 nM; in data set [1] (setting [7]), 1.7 ± 0.9 nM; in data set [2] it was less than 0.01 nM.

Regarding `CCOC(=O)[C@@]1(OC(=O)C(Cl)Cl)[C@@H](C)C[C@H]2[C@@H]3C[C@H](F)C4=CC(=O)C=C[C@]4(C)[C@@]3(F)[C@@H](O)C[C@@]21C` [Compound 15, Ethyl 6α,9α-difluoro-17α-dichloroacetoxy-16β-methyl-11β-hydroxy-3-oxoandrosta-1,4-diene-17β-carboxylate], the IC50 was 2 nM in data set [1] (setting [6]), 14 nM in data set [1] (setting [7]) and less than 0.01 nM in data set [2].

Consider `C[C@H]1C[C@H]2[C@@H]3C[C@H](F)C4=CC(=O)C=C[C@]4(C)[C@@]3(F)[C@@H](O)C[C@]2(C)[C@@]1(OC(=O)C(Cl)Cl)C(=O)OCCl` [Compound 16, Chloromethyl 6α,9α-difluoro-17α-dichloroacetoxy-16β-methyl-11β-hydroxy-3-oxoandrosta-1,4-diene-17β-carboxylate], for which the IC50 in data set [1] (setting [6]) was 0.4 nM; in data set [1] (setting [7]), 5.1 ± 1.7 nM; in data set [2], 26 ± 26 nM.

Take `C[C@H]1C[C@H]2[C@@H]3C[C@H](F)C4=CC(=O)C=C[C@]4(C)[C@@]3(F)[C@@H](O)C[C@]2(C)[C@@]1(OC(=O)C(Cl)Cl)C(=O)OCCO` [Compound 17, 2-Hydroxyethyl 6α,9α-difluoro-17α-dichloroacetoxy-16β-methyl-11β-hydroxy-3-oxoandrosta-1,4-diene-17β-carboxylate]: the IC50 in data set [1] (setting [6]) is less than 1 nM; in data set [1] (setting [7]), 3.7 ± 2.6 nM; in data set [2], 0.13 ± 0.02 nM; in data set [3] (setting [8]), 1.9 nM; in data set [3] (setting [9]) it was 19.2 nM. Also, in data set [3], the “potency and softness compared with the corresponding compounds 11 and 15” value is “more potent but softer”. In addition, the “stability in the presence of human plasma” value in data set [5] is recorded as “particularly stable”.

Consider `C[C@@H]1C[C@H]2[C@@H]3C[C@H](F)C4=CC(=O)C=C[C@]4(C)[C@@]3(F)[C@@H](O)C[C@]2(C)[C@@]1(OC(=O)C(Cl)Cl)C(=O)OCCl` [Compound 22, Chloromethyl 17α-dichloroacetoxy-6α,9α-difluoro-11β-hydroxy-16α-methyl-3-oxoandrosta-1,4-diene-17β-carboxylate], for which the figures for the IC50 in data set [1] (setting [6]), in data set [1] (setting [7]) and in data set [2] were 4 nM, 4 nM and 0.02 nM, respectively.

`CC1CC2C3CC(F)C4=CC(=O)C=CC4(C)C3(F)C(O)CC2(C)C1(OC(=O)C(Cl)Cl)C(=O)SCCl` (stereo not drawn) [Compound 26, S-Chloromethyl 17α-dichloroacetoxy-6α,9α-difluoro-11β-hydroxy-16α-methyl-3-oxoandrosta-1,4-diene-17β-carbothioate]: the IC50 stood at 6 nM in data set [1] (setting [6]), 12 nM in data set [1] (setting [7]) and 3 nM in data set [2].

With `CCC(=O)O[C@]1(C(=O)SCF)[C@H](C)C[C@H]2[C@@H]3C[C@H](F)C4=CC(=O)C=C[C@]4(C)[C@@]3(F)[C@@H](O)C[C@@]21C` [FLU, fluticasone propionate], in data set [4] (setting [10]), the “Edema formation ED50” value turned out to be 2.8 µg/kg, the “Eosinophilia BALF ED50” value is more than 100 µg/kg, the “Eosinophilia Peribronchial ED50” value was found to be 10.5 µg/kg and the “Eosinophilia Perivascular ED50” value was 45.0 µg/kg. In data set [4] (setting [10]), the “Mucus production ED50” value was less than 1.0 µg/kg; the “Mucus production, second line (dose type not given)” value was determined as 1.0 µg/kg; the “AHR (airways hyperreactivity) ED50” value is 0.14 µg/kg. The “BALF protein ED50” value in data set [4] (intratracheal, 2 hours prior challenge, broncho-alveolar lavage fluid) amounted to 11.2 µg/kg. In data set [4] (setting [11]), the “AHR (airways hyperreactivity) MSED” value worked out at 0.1 µg/kg, the “BALF protein MSED” value was 10.0 µg/kg, the “Edema formation MSED” value worked out at 1.0 µg/kg and the “Eosinophilia BALF MSED” value was found to be 10.0 µg/kg. In data set [4] (setting [11]), the “Eosinophilia Peribronchial MSED” value is 1.0 µg/kg and the “Eosinophilia Perivascular MSED” value worked out at 10.0 µg/kg.
